In the supplement of paper PMC4862054:

Key:
Details in all cases: incubation time: 72 h
BT-474 [1] = experiment: normalised response (% of control), CellTiter-Glo; higher = more viable cells (100 = DMSO, 0 = benzethonium chloride kill control)
Description: (§1)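 DSRT, 72 h incubation, CellTox Green / CellTiter-Glo readout. Signal is normalised to DMSO and benzethonium chloride controls. Value is the normalised response at dose 3.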

MDA-MB-468 [2] = experiment: as above
Description: as §1

HCC1143 [3] = experiment: as above
Description: as §1

CAL-85-1 [4] = experiment: as above
Description: as §1

MDA-MB-436 [5] = experiment: as above
Description: as §1

DU-4475 [6] = experiment: as above
Description: as §1

SK-BR-3 = experiment: as above
Description: as §1

MDA-MB-453 [7] = experiment: as above
Description: as §1

HCC1599 [8] = experiment: as above
Description: as §1

MFM-223 [9] = experiment: as above
Description: as §1

HCC1937 [10] = experiment: as above
Description: as §1

BT-549 [11] = experiment: as above
Description: as §1

MDA-MB-231 [12] = experiment: as above
Description: as §1

CAL-148 [13] = experiment: as above
Description: as §1

CAL-51 [14] = experiment: as above
Description: as §1

Hs578T [15] = experiment: as above
Description: as §1

MCF-10A [16] = experiment: as above
Description: as §1

HDQ-P1 [17] = experiment: as above
Description: as §1

CAL-120 [18] = experiment: as above
Description: as §1

BT-474 [19] = experiment: normalised response (% of control), CellTox Green; higher = less cell death (100 = DMSO, 0 = benzethonium chloride kill control)
Method in brief: (§2)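 Breast cancer cell lines, seeded at 20 µl suspension per well, were incubated for 72 h in 384-well plates containing compound at 5 concentrations. These concentrations rose in 10-fold steps over a 10,000-fold range set for each compound. CellTox Green fluorescence (485/520 nm) was read, then CellTiter-Glo luminescence after 10 min at room temperature, and each plate was normalised to 0.1 % DMSO (100) and a positive kill control (0). Values are normalised signals, each at one concentration.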

MDA-MB-468 [20] = experiment: as above
Method in brief: as §2

HCC1143 [21] = experiment: as above
Method in brief: as §2

CAL-85-1 [22] = experiment: as above
Method in brief: as §2

MDA-MB-436 [23] = experiment: as above
Method in brief: as §2

DU-4475 [24] = experiment: as above
Method in brief: as §2

MDA-MB-453 [25] = experiment: as above
Method in brief: as §2

HCC1599 [26] = experiment: as above
Method in brief: as §2

MFM-223 [27] = experiment: as above
Method in brief: as §2

HCC1937 [28] = experiment: as above
Method in brief: as §2

BT-549 [29] = experiment: as above
Method in brief: as §2

MDA-MB-231 [30] = experiment: as above
Method in brief: as §2

CAL-148 [31] = experiment: as above
Method in brief: as §2

CAL-51 [32] = experiment: as above
Method in brief: as §2

Hs578T [33] = experiment: as above
Method in brief: as §2

MCF-10A [34] = experiment: as above
Method in brief: as §2

HDQ-P1 [35] = experiment: as above
Method in brief: as §2

CAL-120 [36] = experiment: as above
Method in brief: as §2

Structure (SMILES) | normalised response (BT-474 [1]) [%] | normalised response (MDA-MB-468 [2]) [%] | normalised response (HCC1143 [3]) [%] | normalised response (CAL-85-1 [4]) [%] | normalised response (MDA-MB-436 [5]) [%] | normalised response (DU-4475 [6]) [%] | normalised response (SK-BR-3) [%] | normalised response (MDA-MB-453 [7]) [%] | normalised response (HCC1599 [8]) [%] | normalised response (MFM-223 [9]) [%] | normalised response (HCC1937 [10]) [%] | normalised response (BT-549 [11]) [%] | normalised response (MDA-MB-231 [12]) [%] | normalised response (CAL-148 [13]) [%] | normalised response (CAL-51 [14]) [%] | normalised response (Hs578T [15]) [%] | normalised response (MCF-10A [16]) [%] | normalised response (HDQ-P1 [17]) [%] | normalised response (CAL-120 [18]) [%] | normalised response (BT-474 [19]) [%] | normalised response (MDA-MB-468 [20]) [%] | normalised response (HCC1143 [21]) [%] | normalised response (CAL-85-1 [22]) [%] | normalised response (MDA-MB-436 [23]) [%] | normalised response (DU-4475 [24]) [%] | normalised response (MDA-MB-453 [25]) [%] | normalised response (HCC1599 [26]) [%] | normalised response (MFM-223 [27]) [%] | normalised response (HCC1937 [28]) [%] | normalised response (BT-549 [29]) [%] | normalised response (MDA-MB-231 [30]) [%] | normalised response (CAL-148 [31]) [%] | normalised response (CAL-51 [32]) [%] | normalised response (Hs578T [33]) [%] | normalised response (MCF-10A [34]) [%] | normalised response (HDQ-P1 [35]) [%] | normalised response (CAL-120 [36]) [%]
C=CC[C@@H]1/C=C(\C)C[C@H](C)C[C@H](OC)[C@H]2O[C@@](O)(C(=O)C(=O)N3CCCC[C@H]3C(=O)O[C@H](/C(C)=C/[C@@H]3CC[C@@H](O)[C@H](OC)C3)[C@H](C)[C@@H](O)CC1=O)[C@H](C)C[C@@H]2OC [Tacrolimus] (100 nM) | 100 | 93 | 101 | 94.6 | 96.4 | 101 | 89.7 | 103 | 95.9 | 106 | 98 | 98.2 | 110 | 111 | 77.2 | 96.5 | 102 | 97.7 | 98.8 | 100 | 186 | 99.5 | 93.4 | 103 | 100 | 97.8 | 95.4 | 101 | 107 | 104 | 104 | 82 | 91 | 95.7 | 57.2 | 69.4 | 100
CC[C@]1(O)C[C@@H]2CN(CCc3c([nH]c4ccccc34)[C@@](C(=O)OC)(c3cc4c(cc3OC)N(C)[C@H]3[C@@](O)(C(=O)OC)[C@H](OC(C)=O)[C@]5(CC)C=CCN6CC[C@]43[C@@H]65)C2)C1 [Vinblastine] (10 nM) | 58.2 | 33.9 | 48.6 | 29.4 | 36 | 96.1 | 12.3 | 57.4 | 70.4 | 77.1 | 71 | 39.1 | 57.8 | 70.8 | 58.1 | 55.4 | 51.6 | 76.1 | 51.5 | 72.6 | 110 | 92 | 31.4 | 44.7 | 102 | 98 | 84.7 | 69.6 | 92.3 | 65.2 | -19.5 | 82.7 | 30.4 | 71.2 | 16.4 | 40.4 | 73.6
CS(=O)(=O)c1ccc(C(=O)Nc2ccc(Cl)c(-c3ccccn3)c2)c(Cl)c1 [Vismodegib] (100 nM) | 94.4 | 96.8 | 94.1 | 98.8 | 96 | 99.4 | 92.7 | 88.4 | 95.1 | 94.4 | 99 | 101 | 94.3 | 94.6 | 109 | 95.5 | 93 | 99 | 93.1 | 92.5 | 87 | 99.2 | 105 | 91.3 | 101 | 93.1 | 100 | 88.8 | 97.9 | 86.2 | 72.6 |  | 98.4 | 80 | 96.2 | 108 | 98.9
CCN1CCN(c2ccc(Nc3cc(N(C)C(=O)Nc4c(Cl)c(OC)cc(OC)c4Cl)ncn3)cc2)CC1 [NVP-BGJ398] (10 nM) | 102 | 99.4 | 100 | 100 | 95.2 | 97.8 | 97.7 | 92.7 | 115 | 95.8 | 96.9 | 99.4 | 93.2 | 97.2 | 58.6 | 99.9 | 98.1 | 104 | 91.4 | 98.8 | 154 | 81.9 | 112 | 103 | 98.7 | 99.5 | 91.5 | 89.8 | 106 | 95 | 99.2 | 101 | 76 | 92 | 100 |  | 96.6
